Results published in patent publication EP4624471A1, “PKMYT1 INHIBITOR, PREPARATION METHOD THEREFOR, AND PHARMACEUTICAL COMPOSITION AND USE THEREOF” (Shanghai Qilu Pharmaceutical Research and Development …, priority 2022, dated 2024).

biological target: T1, PKMYT1 enzyme (Homo sapiens, UniProt Q99640); assay: PKMYT1 enzyme inhibition activity, ADP-GLO method; format: biochemical; conditions: PKMYT1 enzyme 10 nM, ATP 5 µM, 37°C 90 minutes; read-out: ADP-GLO IC50
T1 construct: purchased Thermo Scientific A33387
T1 sequence (Q99640 1-499): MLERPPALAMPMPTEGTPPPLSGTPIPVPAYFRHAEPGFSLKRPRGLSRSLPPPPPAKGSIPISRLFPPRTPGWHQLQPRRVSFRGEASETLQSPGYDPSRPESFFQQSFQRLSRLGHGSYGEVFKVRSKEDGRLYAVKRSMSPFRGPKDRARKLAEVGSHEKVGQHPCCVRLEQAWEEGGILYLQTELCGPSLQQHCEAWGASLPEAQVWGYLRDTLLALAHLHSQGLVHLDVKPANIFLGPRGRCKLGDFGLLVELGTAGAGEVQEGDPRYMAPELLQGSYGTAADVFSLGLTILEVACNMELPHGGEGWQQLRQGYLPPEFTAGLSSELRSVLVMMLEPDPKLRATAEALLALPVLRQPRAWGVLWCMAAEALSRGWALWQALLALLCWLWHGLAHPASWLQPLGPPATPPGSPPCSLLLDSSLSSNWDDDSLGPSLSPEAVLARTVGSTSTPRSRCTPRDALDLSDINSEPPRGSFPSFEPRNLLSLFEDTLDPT

Compared with Cc1cc2c(C(N)=O)c(N)n(-c3c(C)c(O)cc(F)c3C)c2nc1C (atropisomer, axis not shown) [Example 22], Cc1ncc2c(C(N)=O)c(N)n(-c3c(C)c(O)cc(F)c3C)c2n1 (racemic) [Example 63] is 17-fold lower in IC50: 85.5 nM for the first, 5.14 nM for the second. The second is the more potent here.

First: Cc1cc(F)c(O)c(C)c1-n1c(N)c(C(N)=O)c2cc(Cl)c(C)nc21 (atropisomer, axis not shown) [Example 60.2]
Second: CCc1cc2c(C(N)=O)c(N)n(-c3c(C)cc(F)c(O)c3C)c2nc1C (atropisomer, axis not shown) [Example 143]
The IC50 of the first is 9.7-fold lower: 1.88 nM for the first, 18.2 nM for the second.

CCc1nc(C)nc2c1c(C(N)=O)c(N)n2-c1c(C)ccc(O)c1C (atropisomer, axis not shown) [Example 66.1] and Cc1nc(C2CC2)c2c(C(N)=O)c(N)n(-c3c(C)ccc(O)c3C)c2n1 (racemic) [Example 62] are within 1.5-fold of each other in IC50: 16.5 nM for the first, 16.9 nM for the second.

Going from Cc1ncc2c(C(N)=O)c(N)n(-c3c(C)c(O)cc(F)c3C)c2c1F (atropisomer, axis not shown) [Example 71.1] to Cc1c(O)cc(F)c(C)c1-n1c(N)c(C(N)=O)c2cc(C(C)C)cnc21 (atropisomer, axis not shown) [Example 113.1], the IC50 rises from 4.29 nM to 93.1 nM (22-fold). The first is the more potent here.

Going from Cc1cc(F)c(O)c(C)c1-n1c(N)c(C(N)=O)c2cc(C3CC3)cnc21 (atropisomer, axis not shown) [Example 144] to Cc1cc(F)c(O)c(C)c1-n1c(N)c(C(N)=O)c2cc(C(C)C)cnc21 (racemic) [Example 170], the IC50 rises from 5.74 nM to 18.1 nM (3.2-fold). The first is the more potent here.

Going from Cc1cc(F)c(O)c(C)c1-n1c(N)c(C(N)=O)c2cc(C(F)(F)F)cnc21 (atropisomer, axis not shown) [Example 154.2] to Cc1cc(F)c(O)c(C)c1-n1c(N)c(C(N)=O)c2cc(C3CC3)cnc21 (single isomer, unassigned) [Example 144.1], the IC50 falls from 5.1 nM to 2.08 nM (2.5-fold). The second is the more potent here.

First: COc1cc2c(C(N)=O)c(N)n(-c3c(C)cc(F)c(O)c3C)c2nc1C (atropisomer, axis not shown) [Example 158.1]
Second: Cc1cc(F)c(O)c(C)c1-n1c(N)c(C(N)=O)c2cc(Cl)c(C)nc21 (racemic) [Example 60]
The IC50 of the first is 1.7-fold higher: 7.5 nM for the first, 4.31 nM for the second.

Cc1cc(F)c(O)c(C)c1-n1c(N)c(C(N)=O)c2cc(N3CCCC3)c(C)nc21 (atropisomer, axis not shown) [Example 162.1] and Cc1cc(F)c(O)c(C)c1-n1c(N)c(C(N)=O)c2cc(N3CCC3)c(C)nc21 (racemic) [Example 173] are within 1.5-fold of each other in IC50: 9.1 nM for the first, 7.68 nM for the second.

Cc1cc(F)c(O)c(C)c1-n1c(N)c(C(N)=O)c2cc(C3CCOCC3)c(C)nc21 (atropisomer, axis not shown) [Example 163.1] and Cc1cc(F)c(O)c(C)c1-n1c(N)c(C(N)=O)c2cc(C3=CCOCC3)c(C)nc21 (atropisomer, axis not shown) [Example 175] are within 1.5-fold of each other in IC50: 5.7 nM for the first, 4.8 nM for the second.

First: Cc1cc(F)c(O)c(C)c1-n1c(N)c(C(N)=O)c2cc(C3CCOCC3)c(C)nc21 (atropisomer, axis not shown) [Example 163]
Second: Cc1cc(F)c(O)c(C)c1-n1c(N)c(C(N)=O)c2cc(N3CCCC3)c(C)nc21 (racemic) [Example 162]
The IC50 of the first is 1.6-fold higher: 23.4 nM for the first, 14.5 nM for the second.

First: Cc1cc(F)c(O)c(C)c1-n1c(N)c(C(N)=O)c2cc(CC(C)C)c(C)nc21 (atropisomer, axis not shown) [Example 166.2]
Second: CCc1cc2c(C(N)=O)c(N)n(-c3c(C)cc(F)c(O)c3C)c2nc1C (single isomer, unassigned) [Example 143.1]
The IC50 of the first is 5.3-fold lower: 3.78 nM for the first, 20 nM for the second. The first is the more potent here.

Compared with Cc1cc(F)c(O)c(C)c1-n1c(N)c(C(N)=O)c2cc(C(C)(C)O)c(C)nc21 (atropisomer, axis not shown) [Example 172.1], Cc1cc(F)c(O)c(C)c1-n1c(N)c(C(N)=O)c2cc(N(C)C)c(C)nc21 (racemic) [Example 169] is 5.7-fold higher in IC50: 4.6 nM for the first, 26.2 nM for the second. The first is the more potent here.

First: Cc1cc(F)c(O)c(C)c1-n1c(N)c(C(N)=O)c2cc3c(nc21)CCCC3 (atropisomer, axis not shown) [Example 177.2]
Second: Cc1cc(F)c(O)c(C)c1-n1c(N)c(C(N)=O)c2c3c(cnc21)CCC3 (atropisomer, axis not shown) [Example 186.2]
The IC50 of the first is 2.1-fold higher: 8.15 nM for the first, 3.91 nM for the second.

Compared with [2H]C([2H])([2H])c1nc2c(cc1C(F)(F)F)c(C(N)=O)c(N)n2-c1c(C)cc(F)c(O)c1C (atropisomer, axis not shown) [Example 194.1], [2H]C([2H])([2H])c1c(O)c(F)cc(C)c1-n1c(N)c(C(N)=O)c2cc(C(F)(F)F)c(C)nc21 (atropisomer, axis not shown) [Example 195.1] is 1.9-fold lower in IC50: 5.3 nM for the first, 2.8 nM for the second.

Compared with CCc1nc(C)nc2c1c(C(N)=O)c(N)n2-c1c(C)ccc(O)c1C (racemic) [Example 66], CCc1ncc2c(C(N)=O)c(N)n(-c3c(C)ccc(O)c3C)c2n1 [Example 8, 6-Amino-2-ethyl-7-(3-hydroxy-2,6-dimethylphenyl)-7H-pyrrolo[2,3-d]pyrimidine-5-carboxamide] is 2.1-fold lower in IC50: 22.5 nM for the first, 10.5 nM for the second. The second is the more potent here.

Cc1ncc2c(C(N)=O)c(N)n(-c3c(C)c(O)cc(F)c3C)c2c1F (racemic) [Example 71] and COc1cc2c(C(N)=O)c(N)n(-c3c(C)cc(F)c(O)c3C)c2nc1C (racemic) [Example 158] are within 1.5-fold of each other in IC50: 7.99 nM for the first, 8.18 nM for the second.

Going from Cc1cc(F)c(O)c(C)c1-n1c(N)c(C(N)=O)c2cc(C(F)(F)F)cnc21 (racemic) [Example 154] to [2H]C([2H])([2H])c1nc2c(cc1C(F)(F)F)c(C(N)=O)c(N)n2-c1c(C)cc(F)c(O)c1C (racemic) [Example 194], the IC50 falls from 13.9 nM to 6.36 nM (2.2-fold). The second is the more potent here.

First: Cc1cc(F)c(O)c(C)c1-n1c(N)c(C(N)=O)c2cc(CC(C)C)c(C)nc21 (racemic) [Example 166]
Second: Cc1cc(F)c(O)c(C)c1-n1c(N)c(C(N)=O)c2cc(C(C)(C)O)c(C)nc21 (racemic) [Example 172]
The IC50 of the first is 2-fold lower: 8.4 nM for the first, 16.4 nM for the second.

Cc1cc(F)c(O)c(C)c1-n1c(N)c(C(N)=O)c2c3c(c(C)nc21)CCC3 (racemic) [Example 176] and Cc1cc(F)c(O)c(C)c1-n1c(N)c(C(N)=O)c2c3c(cnc21)CCC3 (racemic) [Example 186] are within 1.5-fold of each other in IC50: 9.81 nM for the first, 7.41 nM for the second.

Compared with Cc1cc(F)c(O)c(C)c1-n1c(N)c(C(N)=O)c2cc3c(nc21)CCCC3 (racemic) [Example 177], C=Cc1cc2c(C(N)=O)c(N)n(-c3c(C)cc(F)c(O)c3C)c2nc1C (single isomer, unassigned) [Example 142.1] is 3.4-fold lower in IC50: 34.7 nM for the first, 10.1 nM for the second.

Cc1ccc(O)c(C)c1-n1c(N)c(C(N)=O)c2cc3c(nc21)OCCO3 (racemic) [Example 188] and Cc1ccc(O)c(C)c1-n1c(N)c(C(N)=O)c2cnc(Cl)nc21 [Example 5, 6-Amino-2-chloro-7-(3-hydroxy-2,6-dimethylphenyl)-7H-pyrrolo[2,3-d]pyrimidine-5-carboxamide] are within 1.5-fold of each other in IC50: 10.5 nM for the first, 8.01 nM for the second.

Compared with Cc1ccc(O)c(C)c1-n1c(N)c(C(N)=O)c2c3cnccc3c(C)cc21 (racemic) [Example 189, 8-amino-7-(3-hydroxy-2,6-dimethylphenyl)-S-methyl-7H-pyrrolo[2,3-h]isoquinoline-9-carboxamide], Cc1ccc(O)c(C)c1-n1c(N)c(C(N)=O)c2cnc(Br)nc21 [Example 7, 6-Amino-2-bromo-7-(3-hydroxy-2,6-dimethylphenyl)-7H-pyrrolo[2,3-d]pyrimidine-5-carboxamide] is 1.9-fold higher in IC50: 5 nM for the first, 9.41 nM for the second. The first is the more potent here.

First: [2H]C([2H])([2H])c1c(O)c(F)cc(C)c1-n1c(N)c(C(N)=O)c2cc(C(F)(F)F)c(C)nc21 (racemic) [Example 195]
Second: Cc1ccc(O)c(C)c1-n1c(N)c(C(N)=O)c2cnc(C(F)(F)F)nc21 [Example 4, 6-Amino-7-(3-hydroxy-2,6-dimethylphenyl)-2-(trifluoromethyl)-7H-pyrrolo[2,3-d]pyrimidine-5-carboxamide]
The IC50 of the first is 5.5-fold lower: 4.6 nM for the first, 25.4 nM for the second.

C=Cc1ncc2c(C(N)=O)c(N)n(-c3c(C)ccc(O)c3C)c2n1 [Example 6, 6-Amino-7-(3-hydroxy-2,6-dimethylphenyl)-2-vinyl-7H-pyrrolo[2,3-d]pyrimidine-5-carboxamide] and Cc1ccc(O)c(C)c1-n1c(N)c(C(N)=O)c2cnc(C3=CCCCC3)nc21 [Example 9, 6-Amino-2-(cyclohex-1-en-1-yl)-7-(3-hydroxy-2,6-dimethylphenyl)-7H-pyrrolo[2,3-d]pyrimidine-5-carboxamide] are within 1.5-fold of each other in IC50: 10.1 nM for the first, 9.05 nM for the second.

Compound Cc1ccc(O)c(C)c1-n1c(N)c(C(N)=O)c2cnc(C3CCCCC3)nc21 [Example 10, 6-Amino-2-cyclohexyl-7-(3-hydroxy-2,6-dimethylphenyl)-7H-pyrrolo[2,3-d]pyrimidine-5-carboxamide] has an IC50 of 13 nM.

same assay, conditions: read-out: ADP-GLO IC50; PKMYT1 enzyme 10 nM, ATP 5 µM, 37°C 90 minutes

Compared with Cc1nc(C)c2c(C(N)=O)c(N)n(-c3c(C)ccc(O)c3C)c2n1 (atropisomer, axis not shown) [Example 19.2], Cc1ccc(O)c(C)c1-n1c(N)c(C(N)=O)c2cnc(CC(C)C)nc21 (atropisomer, axis not shown) [Example 57.1] is 1.6-fold higher in IC50: 9.55 nM for the first, 15.1 nM for the second. The first is the more potent here.

Cc1ccc(O)c(C)c1-n1c(N)c(C(N)=O)c2cc3c(nc21)CCO3 (atropisomer, axis not shown) [Example 190.2] showed an IC50 of 2.22 nM.
With Cc1ccc(O)c(C)c1-n1c(N)c(C(N)=O)c2cc3c(nc21)CCO3 (racemic) [Example 190] the IC50 was 4.93 nM.
